This data set relates to HGPS cells. In words: Nuclear deformation counting in HGPS cells. It counts as cell-based, human. Set-up: key to Nuclear deformation (rate): fraction of nuclear-deformed cells, relative to DMSO-treated cells. The conditions noted are these: for Nuclear deformation (rate): 7 days, normalized to DMSO-treated cells; for Nuclear deformation: AG03198. On the procedure: Fig. 1 SLC-D011 ameliorates premature aging features of HGPS. A. HEK293 cells were transiently transfected with expression vector encoding wild-type lamin A (WT-LA), lamin A-C661A (LA-C661A), progerin, or progerin-C611A. LA-C661A or progerin-C611A with point mutation in CaaX motif was predicted to be lack of farnesylation, […] that of authentic WT-LA or progerin. GFP-conjugated empty expression vector was used as a negative control. Cells were visualized at 24 h after transfection. B Transient transfection of HEK293 cells with expression vector encoding progerin or […] leads to reduced expression of H3K9me3 (n = 3 independent experiments; two-tailed Student’s t test). C. JH4 derivatives (JH010 and SLC-D011(D011)) inhibit lamin A and progerin interaction. For binding inhibition assay, bead-conjugated lamin A (GST-LA) was incubated with HEK293 cells, transiently transfected with GFP-progerin (PG), and treated with indicated chemicals. Actin was used as a loading control. PPT, co-precipitated materials with recombinant proteins; Sup supernatant. 5 μM of each chemical was used for binding assay. […] H3K9me3 reduction is a well-known marker for premature aged cells. Thus, H3K9me3 expression was evaluated by immunostaining. […] E SLC-D011 obviously suppresses progerin expression. For progerin expression analysis, each chemical was used to treat HGPS cells (AG03198, Coriell Cell Repositories) for 7 days. […] F SLC-D011 reduces the expression of progerin in other HGPS cells (AG11513 and AG11498, Coriell Cell Repositories). Treatment with SLC-D011 (2 μM) for 7 days reduced the expression of progerin and p16/INK4A but induced the expression of H3K9me3. […] G JH4, JH010, and SLC-D011 promote cell proliferation. Cell viability was determined by MTT assay after incubation with chemicals for 7 days (n = 3 independent experiments; two-tailed Student’s t test). H JH4, JH010, and SLC-D011 show similar activity for ameliorating nuclear deformation. After incubation with chemicals for 7 days, cells were stained with progerin and H3K9me3 antibodies (n = 3 independent experiment; two-tailed Student’s t test), **p < 0.001. Data are reported as mean ± SD. “Con” means Dimethyl sulfoxide (DMSO)-treated control. The data are normalized to DMSO-treated cells.
For nuclear deformation cell counting, immunofluorescence staining was performed with lamin A or progerin antibodies. After staining, abnormal nuclear membrane was counted in randomly selected fields and expressed as percentages or actual numbers of total cells counted. Abnormalities of nuclear membrane were determined based on the following: (1) lamin A/C or progerin lining was extruded or engulfed, (2) having at least one bleb, and (3) irregular contour. Counting of cells with nuclear deformation was performed by three independent observers who were blinded to chemical treatment group. To analyze histone H3K9me3 intensity or expression, images were quantified using “color histogram” function of Image J software (National Institute of Health, NIH). Fluorescence intensities were subtracted by background signals.

Where “and” joins values, the source holds several entries; their conditions need not be identical. Equal entries are not always repeated.

Regarding `CC1(C)Oc2cc3oc(=O)ccc3cc2CC1OC(=O)C=Cc1cccnc1` (centres unmarked) [JH4], the “Nuclear deformation (rate)” value is 0.7742 and 0.8571 and 0.5758 and 0.6176 and 0.8 and 0.6765 (AG03198, 2uM); 0.7169 (AG03198, 2uM, mean); 0.5161 and 0.5357 and 0.5455 and 0.4706 and 0.5667 and 0.5294 (AG03198, 5uM); 0.5273 (AG03198, 5uM, mean).

As for `CC1(C)Oc2cc3oc(=O)ccc3cc2C[C@@H]1OC/C=C/c1ccccc1` [SLC-D011], the “Nuclear deformation (rate)” value runs as follows: (AG03198, 2uM) 0.4839 and 0.6786 and 0.4545 and 0.4706 and 0.5; (AG03198, 2uM, mean) 0.5146; (AG03198, 5uM) 0.4194 and 0.4286 and 0.303 and 0.2353 and 0.3667 and 0.2941; (AG03198, 5uM, mean) 0.3412. In addition, the Nuclear deformation runs as follows: (0.1μM, Ave) 36.4%; (0.1μM, individual replicate) 35% and 37% and 40% and 36% and 34%; (0.2μM, Ave) 33.2%; (0.2μM, individual replicate) 33% and 34% and 30% and 36%; (0.5μM, Ave) 25.8%; (0.5μM, individual replicate) 29% and 28% and 27% and 19% and 26%. The Nuclear deformation (1μM, Ave) came to 21.4%; the Nuclear deformation (1μM, individual replicate) is 23% and 20% and 22% and 19%.

As to `NC(=O)N1CCC(CC(=O)N2CCC([C@H]3c4ncc(Br)cc4CCc4cc(Cl)cc(Br)c43)CC2)CC1` [lonafarnib, reference compound], the Nuclear shape result (HGPS cells) is listed as “induced donut-shaped nuclei”.

The record behind these values is article PMC7782499, “Progerinin, an optimized progerin-lamin A binding inhibitor, ameliorates premature senescence phenotypes of Hutchinson-Gilford progeria syndrome” (Communications Biology, 2021).
